In PubChem BioAssay AID1919003 (Molecular Pharmacology Branch, DTP, NCI, 2023):

System: 786-0 complex spheroids with HUVEC/MSC, growth % test/control
Assay: Anticancer human tumor 786-0 cell line growth inhibition [AhR];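 further: compound exposure lasted seven days before the read-out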
Details: for IC50: curve of first compound; for viability, T/C: stronger effect = lower value
Outline: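 Agents were dosed in half-log steps down from roughly clinical Cmax, or from 10 microM where Cmax was unknown, alone and with AhR antagonists. Read-out: percent test/control growth of tumor spheroids containing HUVEC and MSC stromal cells.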

Work on `CC(C)c1c(-c2ccccc2)nc2c(C#N)c[nH]n2c1=O` + Cc1cncc(-c2nc(NCCc3c[nH]c4ccccc34)c3ncn(C(C)C)c3n2)c1 yielded an IC50 (second compound 0.1 µM) of over 10 µM, an IC50 (second compound 0.316 µM) of over 10 µM and an IC50 (second compound 1 µM) of over 10 µM. It also gave an IC50 (second compound 3.16 µM) of over 10 µM, an IC50 (second compound 10 µM) of under 0.0316 µM and a viability, T/C (second compound 0.1 µM, first compound 0.0316 µM) of 115%. The viability, T/C (second compound 0.1 µM, first compound 0.1 µM) was 121%, the viability, T/C (second compound 0.1 µM, first compound 0.316 µM) was 112% and the viability, T/C (second compound 0.1 µM, first compound 1 µM) was 123%. For the same molecule, the viability, T/C (second compound 0.1 µM, first compound 3.16 µM) was 113%, the viability, T/C (second compound 0.1 µM, first compound 10 µM) was 132% and the viability, T/C (second compound 0.316 µM, first compound 0.0316 µM) was 120%. The viability, T/C (second compound 0.316 µM, first compound 0.1 µM) was 118%, the viability, T/C (second compound 0.316 µM, first compound 0.316 µM) was 118% and the viability, T/C (second compound 0.316 µM, first compound 1 µM) was 124%. The viability, T/C (second compound 0.316 µM, first compound 3.16 µM) was 115%, the viability, T/C (second compound 0.316 µM, first compound 10 µM) was 104% and the viability, T/C (second compound 1 µM, first compound 0.0316 µM) was 114%. It also gave a viability, T/C (second compound 1 µM, first compound 0.1 µM) of 107%, a viability, T/C (second compound 1 µM, first compound 0.316 µM) of 114% and a viability, T/C (second compound 1 µM, first compound 1 µM) of 108%. It also gave a viability, T/C (second compound 1 µM, first compound 3.16 µM) of 116%, a viability, T/C (second compound 1 µM, first compound 10 µM) of 112% and a viability, T/C (second compound 3.16 µM, first compound 0.0316 µM) of 82.9%. It also gave a viability, T/C (second compound 3.16 µM, first compound 0.1 µM) of 71.8%, a viability, T/C (second compound 3.16 µM, first compound 0.316 µM) of 78.2% and a viability, T/C (second compound 3.16 µM, first compound 1 µM) of 78%. It also gave a viability, T/C (second compound 3.16 µM, first compound 3.16 µM) of 67.2%, a viability, T/C (second compound 3.16 µM, first compound 10 µM) of 76.1% and a viability, T/C (second compound 10 µM, first compound 0.0316 µM) of 7.79%. It also gave a viability, T/C (second compound 10 µM, first compound 0.1 µM) of 5.72%, a viability, T/C (second compound 10 µM, first compound 0.316 µM) of 9.94% and a viability, T/C (second compound 10 µM, first compound 1 µM) of 8.21%. For the same molecule, the viability, T/C (second compound 10 µM, first compound 3.16 µM) was 8.12% and the viability, T/C (second compound 10 µM, first compound 10 µM) was 9.28%.
